Columns and labels:
G6PC mRNA (c.648G>T) = test: Repair of abnormal splicing of G6PC mRNA in 293A cells cotransfected with human G6PC full-length plasmid vector (pcDNA hG6PC (c.648G>T)+Int4), qRT-PCR (SYBR Green); type: cell-based; conditions: cotransfection with plasmid vector, oligonucleotide final 20 nM, 24 hours
Protocol: 293A cells were maintained and cultured in a maintenance medium (DMEM, 10% FBS). In the experiment, cells were seeded on a 6-well plate at a density of 2×10^5 cells/well and on a 12-well plate at a density of 1×10^5 cells/well, and the compound of each example and a plasmid vector were simultaneously introduced on the next day, as will be described later, to be used for evaluation.
The compound of each example and a plasmid vector were cotransfected as follows.
In the case of using a 6-well plate, 250 μL of Opti-MEM Medium (Gibco), 0.50 μL of plasmid vector (1 mg/mL), and 4.0 μL (final: 20 nM) of the compound produced in each example (12.5 μM) as solution A and 250 μL of Opti-MEM Medium (Gibco) and 6.0 μL of Lipofectamine2000 (Invitrogen) as solution B were prepared per well, and solution A and solution B were mixed. […]
A human G6PC full-length plasmid vector (pcDNA hG6PC (c.648G>T)+Int4) and each oligonucleotide (15e_001, 15e_002, and the compound of Example 93 of International Publication No. WO 2004/048570 as a control) were cotransfected and evaluated by qRT-PCR (SYBR Green) for whether abnormal splicing due to G6PC (c.648G>T) was repaired. […]

ApoB mRNA = test: Inhibition of ApoB mRNA expression in human primary hepatocytes, qRT-PCR (Taqman assay); type: cell-based; conditions: 72 hours, wells with no compounds added taken as 100%
Protocol: FIG. 3 is a graph showing degradation effects of ApoB mRNA in human primary cultured hepatocytes when ApoB-ASO (white column) and an ApoB-ASO conjugate (filled column) are added to the cells. The amounts of ApoB mRNA in the cells are quantitatively evaluated relatively by qRT-PCR (corrected by the amount of actin mRNA). The Y axis represents relative values (%) in the addition groups when the amount of ApoB mRNA in untreated human primary cultured hepatocytes is taken as 100%.
FBS (Gibco) was added to a Modified Lanford Medium (Nissui Pharmaceutical Co., Ltd) to 10%, to prepare an adhesion medium. Frozen human primary hepatocytes (Gibco, Hu8105) were taken out from a liquid nitrogen tank, thawed at 37° C., then immediately poured into CHRM (Invitrogen), and gently mixed, followed by centrifugation (100 g, 10 minutes) at room temperature. The supernatant was removed with an aspirator, and then an adhesion medium heated to 37° C. was added, to prepare a cell suspension. The number of living cells was counted by an automatic counter (Bio-Rad Laboratories, Inc.), and then the cells were seeded on a collagen-coated 24-well plate (the number of living cells seeded: 1.4 to 2.1×10^5 cells/well). After culture in a CO2 incubator for 4 to 5 hours, the cells were confirmed to be adhered with a microscope, and the compound addition experiment described below was performed.
To a Modified Lanford Medium containing 10% FBS, was added the compound of Reference Example 45 with no GalNAc derivatives bound or the compound of Example 208 with a GalNAc derivative bound, to prepare a compound-containing medium with a target concentration (which was 100 nM in ApoB mRNA, expression evaluation (1) and 10 nM and 100 nM in ApoB mRNA expression evaluation (2), as described below). After the medium of human primary hepatocytes in each well cultured in the 24-well plate had been removed by aspiration, the compound-containing medium was added in an amount of 0.5 mL for each, to start incubation 72 hours later, the later-described RNA extraction experiment was performed
Following incubation, the compound-containing medium in each well of human primary hepatocytes was removed by aspiration and the cells were washed with ice-cooled PBS (0.5 mL). A 1/100 amount of 2-Mercaptoethanol was added to the RTL buffer of the RNeasy Mini QIAcube Kit (QIAGEN K.K.) to prepare a cell lysate. The cell lysate was added in an amount of 400 μL per well and collected after incubation at room temperature for 5 minutes. […]
The reverse transcription reaction was performed as follows. […] 20 μL of the reverse transcription reaction product was diluted 5 times with 80 μL of purified water and stored at −30° C. or evaluated by qRT-PCR as follows. […]

Substance	abnormal splicing of G6PC mRNA due to G6PC (c.648G>T) repaired (G6PC mRNA (c.648G>T))	inhibition of ApoB mRNA expression (ApoB mRNA; 10 nM) [%]	inhibition of ApoB mRNA expression (ApoB mRNA; 100 nM) [%]
15e_001: oligonucleotide sequence 15e_001, the sequence of Example 8 (SEQ ID No: 40), tested as oligonucleotide (AAUCCGATGGCGAAG; chemistry not given here) [Example 15e_001]	normalized		
ApoB-ASO: oligonucleotide of the Example 24 sequence (SEQ ID No: 96) with no GalNAc units bound (AGCATTGGTATTCA; listed as DNA, further chemistry not given here)		4.4	41.2
X^20-G^e2s-C^e2s-A^s-T^s-T^s-G^s-G^s-T^s-A^s-T^s-T^e2s-C^e2s-A^e2s-H [ApoB-ASO conjugate]		30.3	68.6

Source: patent publication US20220378920A1, “CONJUGATE OF GalNAc-OLIGONUCLEOTIDE FOR DELIVERY TO LIVER AND MANUFACTURING METHOD THEREOF” (DAIICHI SANKYO COMPANY, LIMITED, priority 2019, published 2022)
